Experimental data: PMC9765450, “Structures of Fission Yeast Inositol Pyrophosphate Kinase Asp1 in Ligand-Free, Substrate-Bound, and Product-Bound States” (mBio, 2022)

Biological target: T1, Asp1-(1-385) kinase domain (Schizosaccharomyces pombe, UniProt O74429, E248Q)
T1 construct: N-terminal kinase domain, residues 1-385
Test: PAGE kinase assay, toluidine blue staining
Format: biochemical
Conditions: 2 mM GTP, 0.5 mM 5-IP7, 5 mM MgCl2, pH 6.2, 37 °C; phosphate donor

Structure (SMILES): Nc1nc2c(ncn2[C@@H]2O[C@H](COP(=O)(O)OP(=O)(O)OP(=O)(O)O)[C@@H](O)[C@H]2O)c(=O)[nH]1 [GTP]
- PAGE kinase assay, toluidine blue staining: elicited a gain of function whereby GTP was enabled as a phosphate donor
